Measurements as given in patent US20070203153A1, “Compositions and methods for treating thrombocytopenia” (Astellas Pharma Inc., priority 2005, published 2007).

Experiments:
[1] = tested on: G-CSF-mobilized human peripheral blood CD34+ cells; assay: degree of polyploidy of G-CSF-mobilized human peripheral blood CD34+ cells after 12 days incubation; format: cell-based; details: compared with rhTPO-treated cells
[2] = target: T1, human receptor (c-Mpl)-expressing Ba/F3 cells (Homo sapiens, UniProt P40238); assay: proliferation of human c-Mpl-expressing Ba/F3 cells (c-Mpl-Ba/F3 cells); format: cell-based; details: read-out: proliferation in a c-Mpl-dependent manner, EC50
T1 construct: expressed in transfected cells; host or cells: Ba/F3 cells
T1 sequence (P40238 26-635): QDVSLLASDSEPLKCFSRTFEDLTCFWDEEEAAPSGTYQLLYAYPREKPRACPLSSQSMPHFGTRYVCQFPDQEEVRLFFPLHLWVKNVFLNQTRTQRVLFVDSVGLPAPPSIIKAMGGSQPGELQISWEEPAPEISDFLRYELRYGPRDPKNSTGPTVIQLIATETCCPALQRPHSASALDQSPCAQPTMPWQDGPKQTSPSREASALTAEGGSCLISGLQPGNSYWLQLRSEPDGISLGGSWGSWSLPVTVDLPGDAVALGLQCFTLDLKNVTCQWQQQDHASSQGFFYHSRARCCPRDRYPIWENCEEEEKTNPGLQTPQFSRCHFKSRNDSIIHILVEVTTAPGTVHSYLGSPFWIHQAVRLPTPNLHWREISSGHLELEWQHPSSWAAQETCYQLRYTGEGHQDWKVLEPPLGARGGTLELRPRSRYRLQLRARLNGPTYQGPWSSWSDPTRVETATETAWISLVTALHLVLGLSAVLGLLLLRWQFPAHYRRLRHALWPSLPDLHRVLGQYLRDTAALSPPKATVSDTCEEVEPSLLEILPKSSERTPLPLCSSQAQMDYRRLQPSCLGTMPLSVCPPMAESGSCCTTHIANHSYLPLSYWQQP
Text: Thrombopoietin (TPO) is a 332 amino acid cytokine that is the principal physiologic regulator of platelet production. Using a high-throughput growth assay based on the proliferation of human receptor (c-Mpl)-expressing Ba/F3 cells (c-Mpl-Ba/F3 cells), the screening of a library led to the identification of a novel series of c-Mpl agonists.

[3] = tested on: Ba/F3 cell; assay: Ba/F3 cell growth (c-Mpl dependence control); format: cell-based; details: Ba/F3 cells without c-Mpl
[4] = tested on: chimpanzee platelets; assay: activation of signaling pathways in platelets (anti-phospho-STAT5 immunoblot), chimpanzee; format: cell-based
[5] = tested on: human platelets; assay: activation of signaling pathways in platelets (anti-phospho-STAT5 immunoblot), human; format: cell-based
[6] = target: T2, human c-Mpl (Homo sapiens, UniProt P40238); assay: effect on TPO binding to human c-Mpl using human platelets; details: concentrations up to 100 microM
T2 construct: endogenous in cells; host or cells: human platelets
T2 sequence (P40238 26-635): T1 sequence (P40238 26-635)

[7] = tested on: murine platelets; assay: murine platelet count in human platelet-producing NOD/SCID mice; format: in vivo; details: during the study period
Protocol: (§1) In this study, we used commercially available cryopreserved human fetal liver CD34+ cells as a source of human hematopoietic stem cells. The cells were transplanted into sublethally irradiated (240 cGy) NOD/SCID mice. Human platelets started to appear in peripheral blood of these mice 4 weeks after transplantation. The production of human platelets continued up to six months post-transplant. Various doses of FORMULA X (0, 0.3, and 3 mg/kg/day) were orally administered for 14 days to NOD/SCID mice that had been confirmed to produce human platelets stably.
The increase in the human platelet count reached about 2.7-fold at 1 mg/kg/day and about 3.0-fold at 3 mg/kg/day on day 14.

[8] = tested on: Platelets of other species; assay: signaling responses in platelets of other species (anti-phospho-STAT5 immunoblot); format: cell-based; details: baboon, rhesus, cynomolgus, squirrel monkey, marmoset, beagle dog, guinea pig, rabbit, hamster, rat, mouse platelets
[9] = tested on: human cord blood CD34+ cells; assay: megakaryocyte colony formation of human cord blood CD34+ cells; format: cell-based; details: read-out: induction of megakaryocyte colony formation, EC50
[10] = tested on: human platelets; assay: platelet-increasing effect in human platelet-producing NOD/SCID mice; format: in vivo; details: for increase in the human platelet count: day 14
Text: Non-obese diabetic/severe combined immunodeficiency (NOD/SCID) mice were characterized as an efficient engraftment model for human hematopoietic stem cells, as this model results in the production of human platelets. In this way, we examined the in vivo platelet-increasing effect of FORMULA X in human platelet-producing NOD/SCID mice in which human hematopoietic stem cells were transplanted.
as §1, with “Various doses of FORMULA X (0, 0.3, and 3 mg/kg/day) were orally administered for 14 days to NOD/SCID mice that had been confirmed to produce human platelets stably.” left out

[11] = tested on: G-CSF-mobilized human peripheral blood CD34+ cells; assay: differentiation of human CD34+ cells into megakaryocytes, serum-free liquid culture, flow cytometry; format: cell-based; details: day 14
Protocol: G-SCF-mobilized human peripheral blood CD34+ cells were cultured with a combination of FORMULA X and TPO, FORMULA X, or rhTPO in a serum-free liquid culture system. The numbers of CD34+CD41− cells (hematopoietic progenitor cells), CD34+CD41+ cells (megakaryocytic progenitor cells), and CD34−CD41+ cells (megakaryocytes) were measured using flow cytometry.
For purposes of this study, the number of megakaryocytes (CD34−CD41+ cells) depicted in FIG. 1 were counted using flow cytometry. The data represents the mean±SE of 5 independent experiments. *: p<0.05, ***p<0.001 compared with 3 nM TPO using Dunnett's test.
The number of hematopoietic progenitor cells ([…]) and megakaryocytic progenitor cells (CD34+CD41+ cells: b) depicted in FIGS. 2 and 3, respectively, were counted using flow cytometry, then compared with 3 nM TPO using Dunnett's test.
On the indicated days, the numbers of hematopoietic progenitor cells ([…]), megakaryocytic progenitor cells (CD34+CD41+ cells: b), and megakaryocytes (CD34−CD41+ cells: c) depicted in FIGS. 4, 5, and 6 were counted using flow cytometry on indicated days. The data represent the mean±SE of 5 independent experiments. *: p<0.05, **p<0.01, ***p<0.001 compared with 3 nM TPO using Dunnett's tests.

Compound	ploidy level of cells [1]	EC50 [2] [nM]	effect on Ba/F3 cell growth [3]	activation of signaling pathways in platelets [4]	activation of signaling pathways in platelets [5]	influence on rhTPO binding to human c-Mpl [6]	number of murine platelets [7]	signaling responses in platelets (anti-phospho-STAT5 immunoblot) [8]	EC50 [9] [nM]	increase in the human platelet count ([10]; 1 mg/kg/day oral)	increase in the human platelet count ([10]; 3 mg/kg/day oral)	human platelet count after withdrawal of administration ([10]; after withdrawal)	number of human platelets ([10]; oral administration for 14 days, significance at 1 mg/kg/day and above)	number of megakaryocytes (CD34-CD41+ cells) ([11]; agent alone (FIG. 1))	number of megakaryocytes (CD34-CD41+ cells) ([11]; in the presence of 3 nM TPO (FIG. 1))
O=C(Nc1nc(-c2cc(Cl)cs2)c(N2CCN(C3CCCCC3)CC2)s1)c1cnc(N2CCC(C(=O)O)CC2)c(Cl)c1 [FORMULA X]	not different from that of cells treated with rhTPO	3.3	no effect	occurred only in human and chimpanzee platelets	occurred only in human and chimpanzee platelets	did not influence	did not change	no signaling responses	25	about 2.7 fold	about 3.0 fold	return to the pretreatment level	dose-dependently increased	increased the number of megakaryocytes in a dose-dependent fashion	dose-dependently increased
TPO: 332 amino acid cytokine that is the principal physiologic regulator of platelet production	–	–	–	–	–	–	–	showed signaling responses	–	–	–	–	–	increased the number of megakaryocytes in a dose-dependent fashion	–
